Entries after “also recorded” stand apart in the source; their conditions may differ.

Experiment [1] concerns vagal nodose neurons connected to enteroendocrine cells. The experiment can be described thus: Patch-clamp electrophysiology of nodose neurons co-cultured with enteroendocrine cells. To be noted: D-glucose (10 mM); for excitatory postsynaptic potentials and action potentials in connected neurons: co-culture. The format is cell-based, mouse. As for the experimental part: The small intestines of CckGFP and CckCRE_ChR2-tdTomato mice were dissected and flushed twice with cold PBS. The intestine was cut open lengthwise and cut again into ˜1 cm pieces. Tissue pieces were incubated with 3 mM EDTA at 4° C. for 15 minutes then at 37° C. for 15 minutes. New cold PBS was added and villi and crypts were mechanically detached. Villi and crypts were spun down and further digested in Collagenase and Dispase. Cells were spun down and re-suspended in L-15 media with 5% FBS and DNase to prevent cell clumping. Cells were passed through a 70 μm then 40 μm cell strainer to isolate single cells. Then cells were sorted using Fluorescence Activated Cell sorting (BD FACSAria) selecting for GFP fluorescence cells. Cells were sorted into culture media: 10 μl/ml Glutamax, 10 μl/ml HEPES, 20 μl/ml Penicillin-Streptomycin, 10 μl/ml N2 supplement, 20 μl/ml B27 supplement, 0.25 μl/ml EGF, 0.5 μl/ml Noggin, 1 μl/ml r-Spondin and 1 μl/ml NGF in Advanced DMEM/f12. Sorted cells were plated on Matrigel coated 12 mm coverslips at a concentration of ˜8-10 k enteroendocrine cells per coverslip. Nodose neurons were dissected and incubated with Liberase digestion enzyme. Enzyme was washed off and replaced with media. Single cells were dissociated by mechanical force and filtered through a 70 μm cell strainer. Neurons in media were plated evenly on up to 8 coverslips with enteroendocrine cells. Patch-clamp electrophysiology was performed 1-5 days after plating.
Enteroendocrine cells and nodose neurons were co-cultured as described above. Co-culture coverslips were placed in the recording chamber filled with extracellular solution. Recordings were carried out at room temperature using a MultiClamp 700B amplifier (Axon Instruments), digitized using a Digidata 1550A (Axon Instruments) interface, and pClamp software (Axon Instruments) for data acquisition. Data was filtered at 1 kHz and sampled at 10 kHz. CCK-producing enteroendocrine cells were identified by GFP expression and neurons by their morphology and lack of fluorescence. Recordings were made using borosilicate glass pipettes pulled to ˜3.5 MΩ resistance [DVB4]. Extracellular solution contained (in mM): 140 NaCl, 5 KCl, 2 CaCl2, 2 MgCl2, 10 HEPES, pH 7.4 (300-305 mOsmol). For voltage-clamp recordings, intracellular solution contained (in mM): 140 CsF, 10 NaCl, 0.1 CaCl2, 2 MgCl2, 1.1 EGTA, 10 HEPES, 10 sucrose (pH, 7.25, 290-295 mOsmol). For current-clamp recordings, intracellular solution contained (in mM): 140 KCl, 0.5 EGTA, 5 HEPES, 3 Mg-ATP, 10 sucrose (pH, 7.25, 290-295 mOsmol). Neurons were held at −70 mV for 5 min after patching in voltage-clamp mode (to stabilize cells), and then switched to the current-clamp mode. At the resting membrane potential, cell properties such as input resistance, and spike threshold were determined using 200 ms steps from −40 pA to 100 pA in 20 pA increment. […] After glucose exposure, neurons were tested with a current or voltage pulse to confirm the health of the cell. For glutamate receptor blocker experiments, the […]® Micro-perfusion system (Automate Scientific, Inc.) was used. Once the neuron was patched, the […]® nozzle was brought to within 100 μm of the cell, while extracellular solution was perfusing. Kynurenic acid (3 mM) was perfused, then washed for 5 minutes after and the neuron was tested again. EPSC responses were recorded for 1 second after light stimulation. Data are presented as the mean±S.E.M. and significance was determined using a two-tailed Student's t test.
A general note: The patch-clamp technique gives a direct electrical read-out from membranes.

A further experiment has as its system nodose neurons. As to the kind of experiment: Calcium imaging of dissociated Phox2bCRE_GCaMP6s nodose neurons. The format is cell-based, mouse. On the procedure:
For neurons, Phox2bCRE_GCaMP6s (n=3) nodose neurons were dissociated and plated. Nodose ganglia were dissected and digested in Liberase (Roche, 5401054001). Neurons were washed and filtered through a 70 μm cell strainer, then plated on 12 mm coverslips and placed in an incubator overnight. Cells were imaged 1-2 days later. Coverslips were placed in the recording chamber of a Zeiss Examiner Z1 and imaged with a Hamamatsu camera (Orca-flash4.0; C11440) using the Zeiss ZEN software package. For enteroendocrine cells, CckCRE_tdTomato organoids with transduced with ΔG-rabies-GCaMP6s. Organoids were imaged using multi photon microscopy 3-4 days after transduction. Imaging buffer (in mM: 140 NaCl, 5 KCl, 2 CaCl2, 2 MgCl2, 10 HEPES) was continuously perfused over the coverslips. […] Images were analyzed with Fiji ([…]), and cell traces were plotted with Matlab.

Setting [2] is: 20 mM D-glucose, mice=3, cells=246.

Take `O=C[C@H](O)[C@@H](O)[C@H](O)[C@H](O)CO` [D-glucose]: the “excitatory postsynaptic potentials and action potentials in connected neurons” value in experiment [1] is “evoke excitatory postsynaptic potentials and action potentials”. Further, the “excitatory postsynaptic potentials and action potentials in connected neurons” value in experiment [1] (listed as glucose) is “evoked EPSCs; also recorded: induced excitatory post-synaptic potentials and action potential spikes”. Also, the “action potentials in the connected neurons (average)” value in experiment [1] (current-clamp, n=5 pairs) is given as 2±0.32. For the same molecule, in experiment [1] (voltage-clamp, n=6), the “average current of the excitatory post-synaptic potentials (EPSPs)” value is on record as 61.65±15.21 pA and the “average frequency of the excitatory post-synaptic potentials” value is on record as 0.86±0.17 Hz. Besides, in the experiment with nodose neurons (20 mM D-glucose, mice=2, cells=73), the “percent of Fast Blue positive nodose neurons (innervating small intestine) that did not respond” value is listed as 100%. In the experiment with nodose neurons (setting [2]), the “percent of nodose neurons that did not respond” value was 97.3±1.9% and the “percent of nodose neurons that responded” value came to 2.7±1.9%. The “calcium transients in dissociated nodose ganglia neurons” value with nodose neurons (D-glucose (10 mM) as printed, n=246 cells from 3 mice) is listed as “did not elicit calcium transients”. The “calcium response in Fast Blue labeled nodose neurons” value in the experiment on nodose neurons (D-glucose (20 mM)) was “no calcium response was observed”.

(Values after patent US20200147149A1, “COMPOSITIONS AND METHODS FOR THE MODULATION OF GUT SENSORY CELLS” (Duke University, priority 2017, published 2020).)
